We go through three molecules from PMC10777851, “SMT-738: a novel small-molecule inhibitor of bacterial lipoprotein transport targeting Enterobacteriaceae” (Antimicrobial Agents and Chemotherapy, 2023).

Values joined by “and” are separate entries in the source; they are usually repeats but may differ in a detail not shown here. Equal values may be shown once.

The nature of data set [1]: Cytotoxicity assay, positive control (cell line not stated). The format is cell-based. Particulars: human.
The subject of data set [2] is two respiratory isolates (carrying NDM-5 and TEM-OSBL) from Russia in 2019. The conditions noted are these: both isolates, reported to be resistant to cefiderocol; cited from earlier work.
Another data set relates to E. coli. Put plainly: MIC by broth microdilution (CLSI) against E. coli. It is filed as cell-based, Escherichia coli. The method, then:
(§1) MIC tests were performed by broth microdilution in-line with CLSI susceptibility testing standards ([20], [21]) either in-house or at IHMA (Europe and USA) or JMI Laboratories using cation-adjusted Mueller Hinton Broth.

Another data set has as its system K. pneumoniae. In words: MIC by broth microdilution (CLSI) against K. pneumoniae. The format is cell-based, Klebsiella pneumoniae. Here is the method:
as §1

Where [3] appears, read: 15 clinical MDR NDM isolates (NDM-1, NDM-4, NDM-5) from India (2018).
The mark [4] stands for this setting: 100 MDR clinical isolates incl. ESBL and CRE.

Regarding `CSc1ccc2c(c1)N(CCC1CCCCN1C)c1ccccc1S2` (centres unmarked) [Thioridazine], the IC50 at 24 h in data set [1] was 22.1 µM and 8.19 µg/mL.
With `CC(C)(O/N=C(\C(=O)N[C@@H]1C(=O)N2C(C(=O)[O-])=C(C[N+]3(CCNC(=O)c4ccc(O)c(O)c4Cl)CCCC3)CS[C@H]12)c1csc(N)n1)C(=O)O` [cefiderocol], the minimum inhibitory concentration (MIC) in data set [2] is on record as > 64 µg/mL.
For the molecule Colistin [reference compound], in the data set with E. coli (setting [3]), the “MIC Range E. coli (NDM)” value was 0.5 to 1 µg/mL. Further, in the data set on E. coli (setting [4]), the “MIC50 E. coli” value is 0.5 µg/mL, the “MIC90 E. coli” value amounted to 0.5 µg/mL and the “MIC range E. coli” value lay within 0.25 to 8 µg/mL. The minimum inhibitory concentration (MIC) against E. coli (E. coli NCTC 13441 (UPEC, MDR, CTX-M-15 ESBL)) is 0.16 µM and 0.18 µg/mL. For the same molecule, the “MIC Range K. pneumoniae (NDM)” value with K. pneumoniae (setting [3]) is 1 to 32 µg/mL. For the same molecule, in the data set with K. pneumoniae (setting [4]), the “MIC50 K. pneumoniae” value was found to be 0.5 µg/mL and the “MIC90 K. pneumoniae” value is recorded as 16 µg/mL. Besides, the MIC in the data set with K. pneumoniae (K. pneumoniae NCTC 13438 (MDR, Class A KPC)) is 1.56 µM and 1.80 µg/mL.
